The text below walks through data of article PMC4113009, “Dihydroisoxazole inhibitors of Anopheles gambiae seminal transglutaminase AgTG3” (Malaria Journal, 2014).

In data set [1] the target is T1, recombinant tobacco etch virus (TEV) protease (Tobacco etch virus, UniProt P04517).
T1 construct: recombinant tobacco etch virus (TEV) protease
The data set can be described thus: Cysteine protease inhibition assay, TEV protease (GST-gp78 cleavage, SDS-PAGE). It is filed as biochemical. To be noted: 3 at 100 μM, compared to a DMSO control. On the procedure:
The activity of recombinant tobacco etch virus (TEV) protease was determined by cleavage of a fusion protein containing a TEV cleavage site between GST and a 17 kDa fragment of human gp78. TEV and GST-gp78 were incubated at 37°C for 10 min at a substrate:enzyme mass ratio of 10:1. The reaction was stopped by adding 3× loading buffer (150 mM Tris–HCl pH 6.8, 300 mM DTT, 6% (w/v) SDS, 0.06% (w/v) bromophenol blue, 30% (v/v) glycerol). Samples were heated at 95°C for 3 min and separated by 4–20% gradient SDS-PAGE.
Transglutaminases and cysteine proteases have a similar catalytic mechanism involving an active site cysteine and formation of a thioacyl intermediate. […] To test this hypothesis, the inhibition of two cysteine proteases, human caspase-1 and recombinant tobacco etch virus (TEV) protease by 3 at 100 μM were tested using a chromogenic and SDS-PAGE assay, respectively (Figure 9). […] Neither human caspase-1 nor TEV are endogenous proteins in A. gambiae, which may well contain other endogenous targets of 1–3, not least the two other transglutaminases in the A. gambiae genome.

In data set [2] the test system is Anopheles gambiae G3 strain mosquitoes. The experiment in a line: Anopheles gambiae laboratory mating assay (mating plug transfer). It counts as in vivo. On the procedure: Anopheles gambiae G3 strain mosquitoes from a laboratory colony were reared using standard conditions (26–28°C, 65–80% relative humidity, 12 h/12 h Light/Darkness (L:D) photoperiod). Mosquitoes were sexed as pupae and adult males and females were allowed to emerge in separate cages to ensure their status as virgins. Three-day-old virgin males were injected with 138 nl of 100 μM of inhibitor diluted in 5% DMSO, or with 138 nl of a 5% DMSO solution as a control. Mating experiments were performed four days after eclosion as described previously and couples were captured in copula. RNAi experiments were performed as previously described. Mated females were dissected within two hours of mating to determine the presence of the mating plug in their atrium.
Finally, A. gambiae laboratory mating assays were performed to test if the DHI inhibitors identified in the pilot screen could inhibit male transfer of the mating plug. Compound 3, 100 μM in DMSO, was administered to male mosquitoes by intrathoracic injection. Injected males were mated with virgin females, and their ability to transfer a mating plug to females was assessed (Table 1). […] Thus, injection of males with AgTG3 inhibitor 3 is at least as effective as injection of dsRNA to inhibit mating plug formation in A. gambiae males.

Another data set deals with AgTG3 (Anopheles gambiae, UniProt D2K8K8). The experiment in a line: AgTG3 plugin cross-linking assay (SDS-PAGE, FITC-CAD). It counts as biochemical. The note with it: 100 μM inhibitor, 5 mM CaCl2, intensity of high MW bands. On the procedure: Recombinant AgTG3 was pre-incubated with 100 μM inhibitors overnight at room temperature. AgTG3, with and without pretreatment with inhibitors (1 μg), was added to plugin-C (20 μg) and 0.5 mM FITC-cadaverine (FITC-CAD) in 25 mM HEPES, pH 7.5, 10 mM CaCl2, 1 mM DTT. The reaction was incubated at room temperature for 2 h and quenched by heat denaturation of the proteins in the presence of Laemmli buffer. The extent of cross-linking was analysed by sodium dodecyl sulphate-polyacrylamide gel electrophoresis (SDS-PAGE). The gel was scanned using Alpha Imager 2200 software.
AgTG3, sequence (D2K8K8 entry or part of it): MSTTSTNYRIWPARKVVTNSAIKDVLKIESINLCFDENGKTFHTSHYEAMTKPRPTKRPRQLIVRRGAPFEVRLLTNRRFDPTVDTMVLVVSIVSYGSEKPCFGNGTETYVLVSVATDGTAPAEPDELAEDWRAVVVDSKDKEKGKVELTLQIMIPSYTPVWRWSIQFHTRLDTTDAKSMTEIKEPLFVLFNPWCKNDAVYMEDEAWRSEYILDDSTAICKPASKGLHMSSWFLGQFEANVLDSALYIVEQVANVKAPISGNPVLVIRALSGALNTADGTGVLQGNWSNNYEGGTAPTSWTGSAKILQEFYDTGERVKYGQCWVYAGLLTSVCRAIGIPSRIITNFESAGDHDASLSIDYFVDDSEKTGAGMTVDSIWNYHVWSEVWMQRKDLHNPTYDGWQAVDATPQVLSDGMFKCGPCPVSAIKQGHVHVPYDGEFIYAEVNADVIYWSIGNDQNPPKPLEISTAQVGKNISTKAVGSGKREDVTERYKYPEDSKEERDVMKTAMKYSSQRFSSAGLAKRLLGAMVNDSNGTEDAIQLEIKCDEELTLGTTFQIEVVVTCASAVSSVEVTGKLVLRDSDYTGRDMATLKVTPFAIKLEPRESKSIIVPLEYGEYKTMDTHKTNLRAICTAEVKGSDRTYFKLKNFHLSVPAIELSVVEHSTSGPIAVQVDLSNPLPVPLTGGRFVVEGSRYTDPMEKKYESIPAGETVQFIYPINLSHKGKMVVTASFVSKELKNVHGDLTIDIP
Additional assays were performed to examine whether compounds 1 and 3 would inhibit the cross-linking of plugin-C by AgTG3 in solution, with FITC-CAD for fluorescent detection of plugin-C. Results were assessed by SDS/PAGE and UV illumination to detect FITC-CAD (Figure 7). […] In the presence of enzyme, substrate and calcium a ladder of fluorescent bands of increasing molecular weight (MW) is observed (lane 4), corresponding to cross-linked oligomers of plugin also labeled by FITC-CAD. […] However, the levels of AgTG3 in solution assays are higher in the cross-linking assay than the primary screen. The levels of plugin-C were also higher, which competes with slow-binding irreversible inhibitors such as 1 and 3 for the active site of AgTG3.
Figure 7 Inhibition of plugin cross-linking by DHI inhibitors. Fluorescent image of SDS-PAGE for FITC-cadaverine labeling and cross-linking of plugin by AgTG3. Lanes (1–4): (1) AgTG3, (2) Plugin-C, (3) AgTG3 and plugin-C, (4) AgTG3, plugin-C, and 5 mM CaCl2. Lanes (5–8): AgTG3, plugin-C, 5 mM CaCl2 and (5) 10 mM EDTA, (6) 50 mM IA, (7) 100 μM 1, (8) 100 μM 3. (below) Coomassie stain indicating relative levels of monomeric Plugin-C.

T1 sequence (P04517 2038-2279): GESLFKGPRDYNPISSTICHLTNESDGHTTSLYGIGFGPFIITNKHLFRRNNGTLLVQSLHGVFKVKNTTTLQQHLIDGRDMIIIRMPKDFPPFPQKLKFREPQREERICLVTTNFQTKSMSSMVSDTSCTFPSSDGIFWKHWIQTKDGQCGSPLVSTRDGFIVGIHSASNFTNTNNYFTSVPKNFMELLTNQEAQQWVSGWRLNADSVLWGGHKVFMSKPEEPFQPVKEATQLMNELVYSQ

Regarding `O=C(N[C@@H](Cc1c[nH]c2ccccc12)C(=O)NC[C@@H]1CC(Br)=NO1)OCc1cnc2ccccc2c1`, in data set [1], the “Inhibition of TEV protease” value is reported as “no inhibition of the protease”. For the same compound, in data set [2] (intrathoracic injection of males), the “Reduction in transfer of the mating plug” value is recorded as 15%. For the same compound, the “Mating plug transferred (number of females)” value in data set [2] (males injected intrathoracically (3: 138 nl of 100 μM; dsRNA as ref 39), N 75 (3), 77 (dsAgTG3)) is 64. The “No plug transferred (number of females)” value in data set [2] (males injected intrathoracically (3: 138 nl of 100 μM; dsRNA as ref 39), N 75 (3), 77 (dsAgTG3), three independent experiments) is 11. In data set [2] (males injected intrathoracically, DMSO control 3%, dsLacZ control 2%), the “Females that failed to receive a mating plug” value stood at 15%. Moreover, the “Ill effect of injection on males” value in data set [2] (males injected with 3) is recorded as “no obvious ill effect from wounding”. The “Inhibition of plugin-C cross-linking by AgTG3” value on AgTG3 was “to a lesser extent”.
